What was measured:
[1] = test system: JFH-1 virus infected Huh 7.5.1 cell; assay: MTT assay, cytotoxicity of ginsenosides on liver cancer cell line; assay type: cell-based; conditions: 100 μM, 72 hours
Method: MTT assay was conducted to identify cytotoxicity of ginsenosides.
Specifically, the cells (Huh7.5.1) were seeded at the rate of 1×10^4 cells (in 100 μL)/well in 96 well plates, and incubated in 5% CO2 incubator for less than 24 hours. And after the samples were washed with 1×PBS once and treated with the rate of 50 ul JFH-1 virus/well, and replaced in the 5%, CO2 incubator for six hours. After taking out the cell samples from the incubator, the samples were washed with 1×PBS once and replaced in the culturing media comprising 10, 25, 50 and 100 μL concentration of the above stated seven (7) ginsenosides in Example 3, respectively. After the cells were incubated in 5% CO2 incubator for 72 hours, 20 μl of assay reagent, EZ Cytox, was seeded into each well with the care of no bubble producing. And then, the treated cells were incubated in 5% CO2 incubator for 2.5 hours, followed by examining absorbance at 420 nm with Microplate Reader (Molecular Devices, Minn.). DMSO was the solvent used when treating with ginsenoside, and both the control group and the cells infected with JFH-1 group were also treated with the solvent DMSO.

[2] = test system: Huh 7.5.1 cells infected with JFH-1 virus; assay: Microscopic identification of virus suppression effect (cell shape, phase contrast microscope); assay type: cell-based; conditions: 100 μM; for shapes of Huh 7.5.1 cells: JFH-1 infected
Method: About 200,000 Huh 7.5.1 cells were added to a 60×15 mm cell culture dish and every 100 μM of seven ginsenosides (Ro, Re, Rg1, Rg2, Rg3, Rh1, Rh2) per 60×15 mm cell culture dish each was treated. Since it was necessary for ginsenosides in powder formulation to make solutions for the experiments, 50 mM basic concentration solutions for the seven ginsenosides each were prepared and the basic solutions were refrigerated at 4° C. until they were needed.
Non-treatment group (Control), Non-treatment group and DMSO 10 μl treatment group (Control+DMSO 10 μl), JFH-1 virus treatment group (Only JFH-1), JFH-1 virus and DMSO 10 μl treatments group (JFH-1+DMSO 10 μl), JFH-1 virus and Ro 100 uM treatments group (JFH-1+Ro 100 uM), JFH-1 virus and Re 100 uM treatments group (JFH-1+Re 100 uM), JFH-1 virus and Rg1 100 uM treatments group (JFH-1+Rg1 100 uM), JFH-1 virus and Rg2 100 uM treatments group (JFH-1+Rg2 100 uM), JFH-1 virus and Rg3 100 uM treatments group (JFH-1+Rg3 100 uM), JFH-1 virus and Rh1 100 uM treatments group (JFH-1+Rh1 100 uM), JFH-1 virus and Rh2 100 uM treatments group (JFH-1+Rh2 100 uM), JFH-1 virus and Rg1 100 uM treatments group (JFH-1+Rg1 100 uM).
(§1) The experiment was carried out as follow. First, 200,000 Huh 7.5.1 cells were placed in a 60×15 mm cell culture dish. Next day, Japanese Fulminant Hepatitis-1 virus (JFH-1) stock vial which was stored in −70° C. refrigerator was taken out and thawed out in a container filled with ice-water. The culture medium was collected from the cultured 60×15 mm cell culture dish, washed with 1×PBS and collected, again. 1.5 ml of JFH-1 virus solution per 60×15 mm cell culture dish each was added. The dish was shaken to cover the surface sufficiently. The dish was laid in a 5% CO2 incubator at 37° C. for 6 hours and after that, the supernatant was draw out. 1×PBS was spread on the cell surface as slow as possible and after one time washing, cells were collected. 5 ml of cell culture media was added to control and JFH-1 treatments groups. At the last step of virus-infection, 5 ml CM and each […] of ginsenosides which was set to 50 mM concentration were added to the cell culture media. After that, the cell culture media was laid in a 5% CO2 incubator at 37° C. After 72 hours, the following steps were carried out.
As described in the above Example 3, each 100 μM of seven ginsenosides (Ro, Re, Rg1, Rg2, Rg3, Rh1, Rh2) was treated to Huh 7.5.1 cells. After 24 hours and 72 hours, the shapes of Huh 7.5.1 cells were observed using a phase contrast microscope (ECLIPSE TE300, Nicon) of 400× magnifications.

HCV CORE = assay: Western blotting against HCV CORE in JFH-1 infected Huh 7.5.1 cells; assay type: cell-based, Hepatitis C virus (JFH-1); conditions: 10 μM, 25 μM and 50 μM
Method: as §1
As described in the above Example 3, the Huh 7.5.1 cells were treated with each 100 μM of seven ginsenosides (Ro, Re, Rg1, Rg2, Rg3, Rh1, Rh2). After 72 hours, a western blotting analysis was carried out for analyzing virus suppression effect against HCV CORE and cleaved PARP.
Specific western blotting analysis carried out was as follow. First, the above described samples were prepared, mixed with a sample buffer in tubes and heated at 100° C. for 10 minutes. The tubes were cooled on ice and centrifuged. The electrophoresis was carried out with the above samples and molecular weight markers, and then they were transferred to a PVDF membrane (hydrophobic). After blocking with 5% skin milk for an hour, each primary antibody was added. After staying overnight at 4° C., washings three times for every 10 minutes were conducted, and the blocking was carried out with 5% skin milk for an hour at the room temperature. After that, each secondary antibody was added, and the reaction for an hour and washing three times for every 10 minutes were conducted. Then, the membrane was stained by 1:1 mix with detection reagents A (Luminol Enhancer solution) and B (Peroxide solution) and developed with X ray film.
To examine the dose-dependent anti-virus effect of ginsenoside Rg3, western blotting analysis against cleaved PARP and HCV CORE were carried out with the samples of ginsenosides Rg3 treatment concentration at 10 μM, 25 μM, 50 μM and 100 μM each.
To examine the dose-dependent anti-virus effect of ginsenoside Rh2, western blotting analysis against cleaved PARP and HCV CORE were carried out with the samples of ginsenosides Rh2 treatment concentration at 10 μM, 25 μM and 50 μM each. […]

With `CC(C)=CCC[C@](C)(O)[C@H]1CC[C@]2(C)[C@@H]1[C@H](O)C[C@@H]1[C@@]3(C)CC[C@H](O[C@@H]4O[C@H](CO)[C@@H](O)[C@H](O)[C@H]4O)C(C)(C)[C@@H]3CC[C@]12C` [ginsenoside Rh2, reference compound] the “cytotoxicity (MTT assay)” value [1] was “cytotoxic effect was shown predominantly”, the “cell survival under treatment” value [2] was “all cells became extinct” and the “shapes of Huh 7.5.1 cells” value ([2]; 24 hours after treatment) was “No cell were remained due to the apoptosis of all cells”. For the same molecule, the “shapes of Huh 7.5.1 cells” value ([2]; 72 hours after treatment) was “No cell were remained due to the apoptosis of all cells” and the “virus suppression effect (HCV CORE), dose dependence” value (HCV CORE) was “dose-dependent manner”.

Source: US8865659B2, “Compositions for prevention or treatment of Hepatitis C virus containing ginsenoside Rg3 as an active ingredient” (priority 2012, dated 2014)
